From publication PMC6844378, “Structure activity relationship studies on Amb639752: toward the identification of a common pharmacophoric structure for DGKα inhibitors” (Journal of Enzyme Inhibition and Medicinal Chemistry, 2019)
Entries after “also recorded” stand apart in the source; their conditions may differ.

Experiments:
DGKθ = target: T1, DGKθ (Homo sapiens, UniProt P52824); test: Isoform specificity, DGKθ homogenates of transfected 293T cells; assay type: biochemical; details: 100 µM; 293T homogenates
T1 construct: expressed in transfected cells; host or cells: 293T cells, transient transfection (Lipofectamine 3000), crude homogenate
T1 sequence (P52824 1-942): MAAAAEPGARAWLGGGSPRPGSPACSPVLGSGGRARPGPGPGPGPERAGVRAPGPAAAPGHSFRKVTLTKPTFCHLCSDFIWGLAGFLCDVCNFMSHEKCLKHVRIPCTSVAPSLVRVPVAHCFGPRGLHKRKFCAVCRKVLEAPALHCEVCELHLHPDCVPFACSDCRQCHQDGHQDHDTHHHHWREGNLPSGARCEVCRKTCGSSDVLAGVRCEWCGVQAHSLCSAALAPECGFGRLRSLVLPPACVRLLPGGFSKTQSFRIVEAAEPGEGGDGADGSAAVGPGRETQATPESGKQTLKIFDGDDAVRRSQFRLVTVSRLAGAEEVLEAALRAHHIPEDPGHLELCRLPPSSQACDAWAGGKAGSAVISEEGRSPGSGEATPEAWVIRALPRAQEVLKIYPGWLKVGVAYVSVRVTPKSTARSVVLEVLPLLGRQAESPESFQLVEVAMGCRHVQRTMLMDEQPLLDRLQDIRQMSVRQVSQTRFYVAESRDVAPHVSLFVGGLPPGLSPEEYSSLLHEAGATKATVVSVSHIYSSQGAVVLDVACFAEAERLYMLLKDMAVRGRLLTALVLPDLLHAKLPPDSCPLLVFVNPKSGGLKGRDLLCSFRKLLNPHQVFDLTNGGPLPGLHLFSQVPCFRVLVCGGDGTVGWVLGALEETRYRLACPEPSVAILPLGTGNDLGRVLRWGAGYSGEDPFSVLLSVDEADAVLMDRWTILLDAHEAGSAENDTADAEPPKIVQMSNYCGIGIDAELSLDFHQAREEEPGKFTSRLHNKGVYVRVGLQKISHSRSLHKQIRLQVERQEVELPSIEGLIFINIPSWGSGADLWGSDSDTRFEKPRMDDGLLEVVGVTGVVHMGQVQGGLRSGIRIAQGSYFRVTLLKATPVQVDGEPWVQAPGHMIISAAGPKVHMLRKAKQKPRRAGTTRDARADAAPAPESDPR
Experimental: (§1) 293T cells were transiently transfected with indicated DGK isoform plasmid DNA using Lipofectamine 3000, Invitrogen (Carlsbad, CA). Forty eight hours after transfection, cells were harvested and homogenised with a 29 G-needle using 500 µL of homogenate buffer for each dish and immediately stored in aliquots at –80 °C. Cells transfected with empty vector were used as controls, overexpressed DGK has an activity >50 folds the endogenous.
(§2) Essentionally, the same procedure was followed as reported previously in Velnati et al.[9] In brief, DGK activity was assayed by measuring initial velocities (5 min at 27 °C) in presence of saturating substrate concentrations. Reaction conditions: 0.9 µg/µL 1,2-dioleoyl-sn-glycerol, 5 mM ATP, 0.01 µCi/µL [γ^32P]-ATP, 1 mM sodium orthovanadate, 10 mM MgCl2, 1.2 mM EGTA in 7.5 mM Hepes pH 8[12]. Reaction mixture is assembled mixing enzyme (24.5 µL of homogenate), 100× inhibitor or DMSO (0.5 µL), 5× ATP solution (10 µL of 25 mM ATP, 0.05 µCi/µL [γ^32P]-ATP (Perkin-Elmer, Milan, Italy), 5 mM sodium orthovanadate, 50 mM MgCl2), and 3.3× DAG solution (15 µL of 3 µg/µL 1,2-dioleoyl-sn-glycerol resuspended by sonication in 4 mM EGTA in 25 mM Hepes pH 8). […] TLC was run 10 cm and dried before radioactive signals were detected by GS-250 molecular imager and was quantified by quantity one (Bio-Rad, Hercules, CA) software assuring the absence of saturated spots. […]

serotonin receptors = system: serotonin receptors; set-up: method as in PMID 30611057; details: cited from earlier work
DGKα = DGKα (Homo sapiens, UniProt P23743); test: Isoform specificity, DGKα homogenates of transfected 293T cells; assay type: biochemical; details: 100 µM; 293T homogenates
Experimental: as §1, §2

DGKζ = target: T2, DGKζ (Homo sapiens, UniProt Q13574); test: Isoform specificity, DGKζ homogenates of transfected 293T cells; assay type: biochemical; details: 100 µM; 293T homogenates
T2 construct: expressed in transfected cells; host or cells: 293T cells, transient transfection (Lipofectamine 3000), crude homogenate
Experimental: as §1, §2

MCF7 cells = test: Migration assay (serum induced wound healing); assay type: cell-based; details: 10 µM, 15 h, in presence of serum, vs vehicle (DMSO)
Experimental: Michigan Cancer Foundation 7 (MCF7) cells were cultured in DMEM with 10% FBS + 1% penicillin/streptomycin and cultures were maintained by splitting them for every 2–3 days using trypsin–EDTA 0.25%.
Cell migration assays were performed using the Culture-Insert 2 well in µ-Dish (ibidi GmbH, Martinsried, Germany).
Briefly, 25,000 MCF7 cells were plated in each well and cultured for 24 h. The day after, the culture insert was removed and the cells were washed with PBS before treating them with respective DGKα inhibitors (10 µM) or DMSO for 15 h in complete medium (DMEM 10% FBS + 1% penicillin/streptomycin), while medium without FBS was used as a negative control for migration.
Phase-contrast pictures were taken immediately after treatment (0 h) and after 15 h under 5× magnification.
Finally, wound areas were determined using ImageJ software (NIH, , Bethesda, MD). Wound reduction was calculated by using the following formula: (wound area at 15 h/wound at 0 h)×100, the values obtained were expressed as the percentage of wound area compared to the initial area.
To evaluate if our newly synthetised DGKα inhibitors were effective in impairing cancer cell migration, we measured serum induced wound healing in MCF7 breast cancer cells in presence of 10 µM inhibitor. […]
Figure 10. […] Results are expressed as the percentage of wound area compared to the initial area. […]

T2 sequence (Q13574 whole entry, species assumed, canonical isoform): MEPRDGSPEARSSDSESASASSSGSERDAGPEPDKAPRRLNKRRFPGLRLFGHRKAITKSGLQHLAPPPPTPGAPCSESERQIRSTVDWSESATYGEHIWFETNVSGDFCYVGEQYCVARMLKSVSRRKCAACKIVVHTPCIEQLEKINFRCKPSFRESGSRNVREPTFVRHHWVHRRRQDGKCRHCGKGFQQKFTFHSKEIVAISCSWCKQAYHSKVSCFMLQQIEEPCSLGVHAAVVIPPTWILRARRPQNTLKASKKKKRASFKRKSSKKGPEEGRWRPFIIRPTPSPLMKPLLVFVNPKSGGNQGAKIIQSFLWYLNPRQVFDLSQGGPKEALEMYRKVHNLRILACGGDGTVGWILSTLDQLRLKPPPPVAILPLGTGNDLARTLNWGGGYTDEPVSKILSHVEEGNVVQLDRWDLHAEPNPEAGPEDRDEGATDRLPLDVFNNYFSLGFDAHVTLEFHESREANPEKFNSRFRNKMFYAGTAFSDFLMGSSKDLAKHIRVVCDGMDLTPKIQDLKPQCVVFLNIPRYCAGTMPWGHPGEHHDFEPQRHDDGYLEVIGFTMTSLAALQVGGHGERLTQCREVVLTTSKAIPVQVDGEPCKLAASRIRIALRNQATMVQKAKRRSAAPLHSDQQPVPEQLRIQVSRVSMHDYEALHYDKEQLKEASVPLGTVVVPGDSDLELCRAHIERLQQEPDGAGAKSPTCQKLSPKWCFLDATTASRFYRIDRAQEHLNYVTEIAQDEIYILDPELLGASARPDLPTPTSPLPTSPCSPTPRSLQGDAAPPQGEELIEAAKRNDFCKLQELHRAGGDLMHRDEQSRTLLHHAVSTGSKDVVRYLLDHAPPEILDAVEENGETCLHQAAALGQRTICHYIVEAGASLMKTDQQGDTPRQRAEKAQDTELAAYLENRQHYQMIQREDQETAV
DGKα, sequence (P23743 whole entry, canonical isoform): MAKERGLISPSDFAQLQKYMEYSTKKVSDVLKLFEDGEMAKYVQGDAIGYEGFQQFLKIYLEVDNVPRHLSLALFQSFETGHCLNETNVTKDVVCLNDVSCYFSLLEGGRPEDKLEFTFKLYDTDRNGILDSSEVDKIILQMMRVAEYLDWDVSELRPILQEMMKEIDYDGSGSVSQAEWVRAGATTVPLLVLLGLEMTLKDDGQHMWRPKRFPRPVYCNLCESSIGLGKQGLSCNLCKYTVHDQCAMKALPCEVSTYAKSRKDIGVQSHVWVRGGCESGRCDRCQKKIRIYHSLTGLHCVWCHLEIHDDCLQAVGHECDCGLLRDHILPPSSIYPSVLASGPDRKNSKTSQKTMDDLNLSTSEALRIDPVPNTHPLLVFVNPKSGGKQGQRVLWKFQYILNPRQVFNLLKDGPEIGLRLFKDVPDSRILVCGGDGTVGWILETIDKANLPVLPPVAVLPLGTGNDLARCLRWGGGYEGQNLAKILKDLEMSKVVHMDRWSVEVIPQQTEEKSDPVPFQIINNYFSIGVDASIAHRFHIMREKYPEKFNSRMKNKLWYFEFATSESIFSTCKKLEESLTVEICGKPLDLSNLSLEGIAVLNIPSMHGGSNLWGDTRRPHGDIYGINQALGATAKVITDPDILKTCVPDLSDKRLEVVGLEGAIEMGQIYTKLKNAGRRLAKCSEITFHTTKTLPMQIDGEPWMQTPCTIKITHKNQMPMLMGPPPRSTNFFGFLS

effect on DGKθ activity (DGKθ)	inhibition of DGKα activity (DGKα)	effect on DGKζ activity (DGKζ)	Compound	anti-serotoninergic activity (serotonin receptors)	cell migration (wound closure) (MCF7 cells)
do not have significant effects	completely inhibit	do not have significant effects	Cc1ccc2c(C(=O)CN3CCN(C(=O)c4ccco4)CC3)c(C)[nH]c2c1 [Amb639752]	no effects on serotonin activity; also recorded: devoid of anti-serotoninergic activity	–
–	–	–	Cc1ccc2c(C(=O)CN3CCN(C(=O)c4ccc(Cl)cc4)CC3)c(C)[nH]c2c1 [Compound 11, 2-(4-(4-Chlorobenzoyl)piperazin-1-yl)-1-(2,6-dimethyl-1H-indol-3-yl)ethan-1-one]	–	reduce the migration
activator	–	–	Cc1ccc(C(=O)N2CCN(CC(=O)c3c(C)[nH]c4cc(C)ccc34)CC2)cc1 [Compound 20, 1-(2,6-Dimethyl-1H-indol-3-yl)-2-(4-(4-methylbenzoyl)piperazin-1-yl)ethan-1-one]	–	reduce the migration
